Measured values published in ChEMBL document CHEMBL1201862, “PubChem BioAssay data set” (2004).
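Assay format: 96-well plates, 48-hour exposure. GI50: concentration for 50% inhibition of growth.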 Activity calls are given as the source filed them. Rule as the data show it: active = GI50 up to about 1.1 µM and inactive = higher.

Legend:
Assay in all cases: growth of human tumour cells (NCI), 48 h
HOP-92 = system: HOP-92
SF-268 = system: SF-268
SF-295 = system: SF-295
HCT-116 = system: HCT-116
SNB-19 = system: SNB-19
SK-MEL-28 = system: SK-MEL-28
OVCAR-5 = system: OVCAR-5
786-0 = system: 786-0
K562 = system: K562
U-251 = system: U-251
SN12C = system: SN12C
NCI-H23 = system: NCI-H23
MCF7 = system: MCF7
Hs-578T = system: Hs-578T
BT-549 = system: BT-549
SK-MEL-5 = system: SK-MEL-5
EKVX = system: EKVX
PC-3 = system: PC-3
MDA-MB-231 = system: MDA-MB-231

Measured: GI50

CCc1cccc(C)c1NC(=O)CC1C(=O)Nc2ccccc2[S+]1[O-] (stereo unspecified)
inactive: HOP-92 53.7 µM | SF-268 42.2 µM | SF-295 32.1 µM | HCT-116 35.8 µM | SNB-19 48.4 µM | SK-MEL-28 73.1 µM | OVCAR-5 > 100 µM | 786-0 47.5 µM | K562 24.7 µM | U-251 18.7 µM | SN12C 50 µM | NCI-H23 31.3 µM

CC12CC(c3ccccc3O1)C(C(=O)Nc1ccc(Cl)cc1Cl)C(=O)N2 (stereo unspecified)
inactive: SF-268 33.8 µM | MCF7 > 100 µM | SF-295 48.2 µM | HCT-116 34.3 µM | SNB-19 36.7 µM | SK-MEL-28 72.8 µM | Hs-578T 25.2 µM | OVCAR-5 29.6 µM | BT-549 89.3 µM | 786-0 19.7 µM | K562 38.3 µM | U-251 22.2 µM | SK-MEL-5 > 100 µM | EKVX 18.3 µM | PC-3 44 µM | NCI-H23 25.9 µM

Nc1nc(-[n+]2ccc(-c3ccncc3)cc2)nc(Cl)c1Cl
inactive: HOP-92 23.8 µM | SF-268 18.4 µM | MCF7 4.6 µM | HCT-116 > 100 µM | SNB-19 27 µM | SK-MEL-28 47 µM | OVCAR-5 > 100 µM | BT-549 > 100 µM | 786-0 13.5 µM | K562 29.9 µM | U-251 35.4 µM | SK-MEL-5 > 100 µM | EKVX 26.6 µM | MDA-MB-231 35.4 µM | SN12C 20.3 µM | PC-3 54.3 µM | NCI-H23 22.5 µM

CC(=O)N[C@@H](Cc1ccc(O)cn1)C(=O)NCc1cccc(F)c1
inactive: HOP-92 30.9 µM | SF-268 > 100 µM | MCF7 > 100 µM | SF-295 > 100 µM | HCT-116 > 100 µM | SNB-19 > 100 µM | SK-MEL-28 > 100 µM | Hs-578T > 100 µM | OVCAR-5 > 100 µM | BT-549 > 100 µM | 786-0 > 100 µM | K562 > 100 µM | U-251 > 100 µM | SK-MEL-5 > 100 µM | EKVX > 100 µM | SN12C > 100 µM | PC-3 > 100 µM | NCI-H23 > 100 µM

O=C1/C(=C\c2cccc(Oc3ccccc3)c2)SC(c2ccccc2)N1c1cccc(Cl)c1 (stereo unspecified)
inactive: HOP-92 > 100 µM | SF-268 > 100 µM | SF-295 > 100 µM | HCT-116 > 100 µM | SNB-19 > 100 µM | SK-MEL-28 > 100 µM | Hs-578T > 100 µM | OVCAR-5 > 100 µM | BT-549 > 100 µM | 786-0 > 100 µM | K562 > 100 µM | U-251 > 100 µM | SK-MEL-5 > 100 µM | EKVX > 100 µM | MDA-MB-231 > 100 µM | SN12C > 100 µM | NCI-H23 > 100 µM

CN1CCCCC(C#N)(c2ccccc2)CC1 (stereo unspecified)
inactive: HOP-92 > 100 µM | SF-268 > 100 µM | MCF7 > 100 µM | SF-295 > 100 µM | HCT-116 > 100 µM | SNB-19 > 100 µM | SK-MEL-28 > 100 µM | Hs-578T > 100 µM | OVCAR-5 > 100 µM | 786-0 > 100 µM | K562 > 100 µM | U-251 > 100 µM | SK-MEL-5 > 100 µM | EKVX > 100 µM | PC-3 > 100 µM | NCI-H23 > 100 µM

Clc1ccc(-c2ccc(-c3nnc(COc4ccc(OCc5nnc(-c6ccc(-c7ccc(Cl)cc7Cl)o6)o5)c(Cl)c4)o3)o2)c(Cl)c1
inactive: SF-268 56.1 µM | MCF7 > 100 µM | SF-295 > 100 µM | HCT-116 > 100 µM | SNB-19 61.7 µM | SK-MEL-28 > 100 µM | Hs-578T 83 µM | OVCAR-5 > 100 µM | BT-549 > 100 µM | 786-0 > 100 µM | K562 > 100 µM | U-251 40 µM | SK-MEL-5 > 100 µM | EKVX > 100 µM | MDA-MB-231 > 100 µM | SN12C > 100 µM | NCI-H23 > 100 µM

CC(=O)N1c2ccccc2[C@H]2CCc3c([nH]c4ccccc34)[C@H]21
inactive: HOP-92 14.4 µM | SF-268 15.4 µM | SF-295 13.9 µM | HCT-116 3.07 µM | SNB-19 24.3 µM | SK-MEL-28 14.7 µM | Hs-578T 21.9 µM | OVCAR-5 26.9 µM | BT-549 11 µM | 786-0 15 µM | K562 8.57 µM | U-251 12.7 µM | SK-MEL-5 12.9 µM | EKVX 14.5 µM | MDA-MB-231 11.4 µM | SN12C 13.7 µM | PC-3 23 µM | NCI-H23 9.53 µM
